Assay [1] concerns X12T glioma. Nature of the assay: Survival of TMZ-resistant glioma-bearing mice. Format: in vivo. To be noted: cells given as single administration per week. The source says: (§1) The expression of NKG2DL on tumor cells increases the overall potency of γδ T cell therapy. FIGS. 5A and 5B show the survival of X12P and X12T (TMZ resistant) glioma-bearing mice, respectively, in response to various treatments. […] The DRI treatment regimen increased median survival from 57 to 75 days over the TMZ treatment regimen. […] The DRI treatment regimen increased median survival from 22 to 27 days over the TMZ treatment regimen. The effect of the DRI treatment regimen could be increased by intensification of the administration of the γδ T cells and NK cells from a single administration per week (as shown in FIG. 2) to two administrations per week (data not shown).

Assay [2] concerns X12P glioma. Put plainly: Survival of glioma-bearing mice. Format: in vivo.
Excerpt: as §1

SMILES strings stand for the structures.

`Cn1nnc2c(C(N)=O)ncn2c1=O` [TMZ, temozolomide]: the median survival in assay [1] is 22 days; in assay [2] it was 57 days.
